The NIST ThermoML archive (doi:10.1016/j.jct.2017.03.021)
Where “and” joins values, the source holds several entries; their conditions need not be identical. Equal entries are not always repeated.

Columns and labels:
[1] = Crystal; for vapor or sublimation pressure: Calculated from knudsen effusion weight loss
[2] = Molar enthalpy of transition or fusion; conditions: Crystal; DSC

O=Cc1ccc2c(c1)Cc1ccccc1-2 [9H-fluorene-2-carbaldehyde]
[1]
Conditions | Normal melting temperature [°C] | vapor or sublimation pressure
335.16 K | – | 0.000121 kPa and 0.00012 kPa
337.16 K | – | 0.000147 kPa and 0.000149 kPa and 0.000144 kPa
339.09 K | – | 0.000186 kPa and 0.000185 kPa
341.11 K | – | 0.000231 kPa and 0.000233 kPa
341.16 K | – | 0.000227 kPa
343.08 K | – | 0.000288 kPa and 0.000289 kPa
343.14 K | – | 0.000288 kPa
345.09 K | – | 0.00036 kPa and 0.000361 kPa and 0.000364 kPa
347.16 K | – | 0.000444 kPa and 0.000463 kPa
349.11 K | – | 0.000553 kPa and 0.00054 kPa and 0.000557 kPa
351.09 K | – | 0.000685 kPa and 0.000687 kPa and 0.000681 kPa
353.1 K | – | 0.000861 kPa and 0.000847 kPa and 0.000859 kPa
355.09 K | – | 0.001048 kPa and 0.001057 kPa and 0.001075 kPa
DTA | 84.5 | –

Conditions | Molar enthalpy of transition or fusion [kcal/mol]
[2] | 5.26
